Measurements: patent US8097585B2, “Methods of treating inflammation by administration of heme oxygenase-1 and products of heme degradation” (priority 2002, dated 2012)
Entries after “also recorded” stand apart in the source; their conditions may differ. Counter-ions that a name gives are not always drawn.

Assays:
IL-2 = IL-2 assay (ELISA of culture supernatant); format: cell-based, mouse; settings: anti-CD3 mAb stimulation, biliverdin 50 or 100 μM
Protocol: IL-2 assay. B6AF1 leukocytes (2.5×10^5 cells/well) were stimulated by anti-CD3 mAb (1 μg/ml), and cultured in 96 well round bottom plates with or without biliverdin (50 or 100 μM). Forty-eight hours later, culture supernatant (100 μl) was collected and stored at −80° C. until use. All cultures were performed in triplicates. IL-2 levels in the supernatants were measured by enzyme-linked immunosorbent assays (ELISA) using an IL-2 assay kit (Quantikine® M, R&D Systems, Inc), following kit instructions. Measurements of each supernatant sample for IL-2 were performed in duplicate. The experiment was repeated 4 times.

NFAT = assay: EMSA of nuclear extracts, NFAT DNA binding; format: cell-based; settings: Jurkat T cells, PMA plus ionomycin, 100 μM biliverdin
Protocol: Nuclear protein extraction and electrophoretic mobility shift assay (EMSA). Jurkat T cells were cultured in 10% FCS supplemented RPMI 1640 with 50 nM phorbol myristyl acetate (PMA) and 2 μM ionomycin (both reagents from ICN Biomedicals) in the presence or absence of 100 μM biliverdin. Following 0, 2, and 4 hrs of stimulation, cells (30×10^6 cells for each group at each time points) were collected, washed twice with PBS, and pelleted. Nuclear and cytoplasmic extracts were prepared according to a modified Shapiro's method (Shapiro et al., DNA 7(1):47-55, 1988). Protein concentrations were determined by the Bradford assay. The following oligonucleotides (Invitrogen, Calsbad, Calif.) were used for EMSA:
NFAT, (coding) 5′-[…]-3′ (SEQ ID NO:5),
(non-coding) 5′-[…]-3′ (SEQ ID NO:6); and
Oligonucleotides were radioactively labeled with [^32P] ATP. The EMSA reactions were assembled as previously described (Usheva et al., Proc. Natl. Acad. Sci. USA 93(24):13571-6, 1996). Digital images from the EMSA radiographs were obtained using an image scanner.

[1] = design: species or system LEW rats; settings: rat, in vivo, ip
Protocol: Serum bilirubin levels and BVR expression in the graft. To assess how fast injected biliverdin (BV) is metabolized into bilirubin, sequential serum bilirubin levels were analyzed. Before BV treatment, serum bilirubin levels were undetectable. Thirty minutes after BV injection i.p., serum bilirubin levels reached a peak of 1.07±0.5 mg/dl compared to those of normal animals. By 2 hours after injection i.p., bilirubin levels returned to normal.

[2] = tested on: jejunal circular muscle strips; assay: Jejunal circular muscle contractility after small intestinal transplantation (organ bath); format: in vivo, LEW rats
Protocol: Small Intestinal Transplantation. Orthotopic small intestinal transplantation (SITx) was performed in syngeneic Lewis rats. SITx with caval drainage was performed using a previously described procedure (Murase et al., in Handbook of Animal Models in Transplantation Research, Cramer et al., Eds. CRC Press, Boca Raton, Fla., pp. 203-213 (1994)). […] The graft was perfused via the aortic segment with 5 ml chilled Ringer's lactate solution, and the intestinal lumen was irrigated with 20 ml of cold saline solution containing 0.5% neomycin-sulfate (Sigma, St. Louis, Mo.). End-to-side anastomoses between the graft aorta and the recipient infrarenal aorta, and between the graft portal vein and recipient vena cava, were performed with 10-0 Novafil™ suture. The cold ischemic time was 1 hour. The entire recipient intestine was removed and the enteric continuity was restored by proximal and distal end-to-end intestinal anastomoses. Recipient animals were given 20 mg/day prophylactic cefamandole nafate for 3 postoperative days. Transplanted recipients were given water 3 hours after surgery, and were fed 24 hours after surgery.
Motility Studies. The effect of administration of biliverdin on treatment on intestinal dysmotility in transplanted grafts was assessed both in vitro and in vivo. […] In vitro circular muscle mechanical activity was measured as previously described (Eskandari et al., Am. J. Physiol. 273(3 Pt 1):G727-34, 1997). Rats were anesthetized and killed by exsanguination 24 hours post-operatively. A segment of mid-jejunum was pinned in a Sylgaard™ lined dissecting dish containing pre-oxygenated Krebs-Ringer-bicarbonate buffer (KRB; in mM: 137.4 Na^+, 5.9 K^+, 2.5 Ca^2+, 1.2 Mg^2+, 134 Cl^−, 15.5 HCO3^−, 1.2 H2PO4^−, and 11.5 glucose) that was equilibrated with 97% O2/3% CO2. […] Contractile activity was calculated by integrating the area under the trace, normalized by converting the weight and length of the strip to square millimeters of tissue (1.03 mg/mm^2), and reported as g/s/mm^2. […]

## C=CC1=C(C)/C(=C/C2=NC(=C\c3[nH]c(/C=C4\NC(=O)C(C)=C4C=C)c(C)c3CCC(=O)O)/C(CCC(=O)O)=C2C)NC1=O [biliverdin, biliverdin dihydrochloride]
IL-2
  IL-2 production by splenocytes: significantly suppressed in a dose-dependent manner
NFAT
  DNA binding of NFAT: inhibited DNA binding
[1]; LEW
  peak serum bilirubin level: 1.07 ± 0.5 mg/dL
  time for bilirubin levels to return to normal: ≤ 2 h
[1]
  time to peak serum bilirubin: Thirty
[2]; control (unoperated) animals treated with BV
  spontaneous muscle contractile activity: no change
[2]; grafts in recipients treated with BV, compared to untreated transplants, 24 hours
  spontaneous contractile activity: significantly greater
[2]; transplanted animals treated with BV versus untreated graft muscles, 24 hours, listed as BV, dihydrochloride
  bethanechol-stimulated muscle contractility: significantly improved; also recorded: Significant improvement
